Results: patent publication US20090155186A1, “Compositions and methods for treating inflammatory conditions” (SIGNUM BIOSCENCES, INC., priority 2005, published 2009)

Key:
[1] = tested on: delayed-type hypersensitivity; assay: DNFB delayed-type hypersensitivity mouse ear model; assay type: in vivo; conditions: AFC 0.5 hour before or 15 min after challenge, contemplated result
From the text: The mouse ear model, described above, can be modified to assay the effect of anti-inflammatory agents in an immune based inflammation model (See Tramposch, K. M., Skin Inflammation, in In Vivo Models of Inflammation, M. L. Morgan D W, Editor. 1999, Birkhauser Verlag. pp. 179-20 and Chapman, J. P., Z. Ruben, and G. M. Butchko, Histology of and quantitative assays for oxazolone-induced allergic contact dermatitis in mice. Am J Dermatopathol, 1986. 8(2): 130-8). In this model, a sensitizing dose of dinitrofluorobenzene (DNFB) 1-3% in acetone can be applied topically according to a modification of the method by Back et al. to the shaved bellies of mice to elicit an immune response. (See Back, O. and T. Egelrud, Topical glucocorticoids and suppression of contact sensitivity. A mouse bioassay of anti-inflammatory effects. Br J Dermatol, 1985. 112(5): 539-45 and Bailey, S. C., et al., A novel contact hypersensitivity model for rank-ordering formulated corticosteroids. Inflamm Res, 1995. 44 Suppl 2: S162-3.) Mice then are challenged on day 5 with 40 μl of 0.5-1% DNFB to each ear. […] The ears are assayed for edema or neutrophil infiltration 5 hours later. Dexamethasone is used as a positive control. Five days later, the ears are challenged topically with a dose of DNFB insufficient to produce contact irritation. Simultaneously, cell infiltration studies are initiated. […]

TPA-induced MPO activity [2] = assay: TPA-induced neutrophil infiltration, MPO assay of mouse ears; assay type: in vivo
Protocol: MPO enzyme activity of the ears was assayed using the technique detailed by Griffiths and coworkers (1988). To conduct the assay, each ear was homogenized in 1.0 ml of cetyltrimethylammonium bromide buffer for 5 sec using a Pro 200 tissue blender (Pro Scientific, Inc., Oxford, Conn.) at setting 5. These samples then were centrifuged for 5 minutes at 15,000 rpm in a 5415 Eppendorf microcentrifuge. Triplicate 20 microliter aliquots of supernatant were added to 200 microliters of reaction mixture (1.25 ml IM Potassium Phosphate, 4.175 mg o-dianisidine dihydrochloride and 5 μl of 1% peroxide in a final volume of 25 ml). Absorbance at 450 nm then was measured at room temperature at three 60 second intervals using Bio-Kinetics Reader EL 312E (Bio-Tek Instruments). Activity of the homogenate, which was determined by a Bradford assay (BioRad Protein Assay, BioRad Laboratories, Inc. Hercules, Calif.), was expressed as units MPO per mg tissue +/−standard error.
Two micrograms (2 μg) of TPA in 20 μl of acetone was applied onto both ears of each mouse to induce neutrophil infiltration. After 15 minutes, varying concentrations of AFC in acetone were applied to the right ear of each mouse. After 24 hours, the mice were sacrificed. The ears were removed and the efficacy of AFC on neutrophil infiltration was assessed by an MPO assay and histological analysis.
The effectiveness of AFC treatment at various times before and after TPA application was assessed using MPO as a measure of neutrophil infiltration. […]

human skin = assay: SDS patch irritation on human skin with pre-applied AFC; assay type: in vivo; conditions: AFC 140 mM aqueous formulation pre-applied
Protocol: An irritant was applied to the middle of the upper back of a human subject using a 0.2 ml 20% SDS solution and a Hill-Top Chamber patch with Webril pad. […] Patches 1a and 2a were removed after 2 hours, while patches 1b and 2b were removed after 2 hours and 30 minutes. High levels of irritation were visible in patch sites 2a and 2b.

[3] = tested on: TPA-induced neutrophil infiltration; assay: TPA-induced neutrophil infiltration, neutrophil counting assay (H&E histology); assay type: in vivo, mouse
Protocol: Neutrophil-infiltration Assay: Swiss Webster male mice (n=6) were treated with 1 μg/20 μl of TPA as described above in order to assess whether or not TPA induced neutrophil infiltration Acetone was used as a control. TPA was administered as described above. The mice were returned to their cages for 24 hrs to allow neutrophil infiltration, then sacrificed by cervical dislocation. The ears were removed immediately for punch biopsy, and punches were fixed for subsequent histological analysis and MPO enzymatic assay.
Neutrophil Counting Assay: Ear punches buffered in 10% formalin in PBS at ambient temperature for a minimum of 24 hrs. were sectioned and stained with Hematoxilin & Eosin (“H&E”). The number of neutrophils, identified by their multilobular nuclei, in 6 randomly 100× magnified fields distributed along the length of the ear were counted manually The results are expressed as the average number per field for each ear.
Two micrograms (2 μg) of TPA in 20 μl of acetone was applied onto both ears of each mouse to induce neutrophil infiltration. […] After 24 hours, the mice were sacrificed.

TPA-induced erythema = TPA-induced erythema in mouse ear (photograph); assay type: in vivo; conditions: 1 μg/20 μl TPA; 1 mg/20 μl AFC after 1 hour; photo 23 hours later
Protocol: For this example, both ears of a mouse were treated with a 1 μg/20 μl dose of TPA in acetone. […] The photo was taken 23 hours later using a Nikon D70 digital camera.

TPA-induced edema = assay: TPA-induced edema, murine ear acute contact irritation model; assay type: in vivo, mouse; conditions: 2 μg TPA in 20 μl acetone; AFC in acetone 15 min later; 5.5 hours
From the text: (See Carlson, R. P., et al., Modulation of mouse ear edema by cyclooxygenase and lipoxygenase inhibitors and other pharmacologic agents. Agents Actions, 1985. 17(2): 197-204; Kuehl, F. A., Jr., et al., Role of prostaglandin endoperoxide PGG2 in inflammatory processes. Nature, 1977. 265(5590): 170-3; Trancik R J, L. N., Evaluation of topical nonsteroidal anti-inflammatory agents, in Models in Dermatology, L. Maibach, Editor. 1985, Karger. pp, 35-42; and Tramposch, K. M., Skin Inflammation, in In Vivo Models of Inflammation, M. L. Morgan D W, Editor. 1999, Birkhauser Verlag. pp. 179-204.)
The standard agents for initiating inflammation were the phorbol ester, tetradecanoylphorbol acetate, (TPA) and arachidonic acid (AA). TPA produces a greater and more prolonged neutrophil infiltration response than AA (See Rao, T. S., et al., Comparative evaluation of arachidonic acid (AA)-and tetradecanoylphorbol acetate (TPA)-induced dermal inflammation. Inflammation, 1993.17(6): 72341.) TPA-induced inflammation is the preferred agent and was used for this example.
In order to assess the effects of the inventive composition on TPA-induced edema, 2 μg of TPA in 20 μl acetone was applied with the aid of a micropipetter onto both ears of each of 6 mice. The mice were returned to their cages. […]

mouse ear [4] = assay: AFC in acetone alone, mouse ear edema (irritancy test); assay type: in vivo; conditions: topical, dose up to about 32 mg/20 μl, 5.5 hours
Protocol: Each contralateral ear was treated with only acetone in the same manner. The mice then were returned to their cages. After 5.5 hours, mice were sacrificed and 6 mm punches were taken from each ear and weighed. Edema response was expressed as the percent increase in the treated ear's weight over the untreated (acetone, vehicle only) ear.

[5] = molecular target: membrane-associated polyisoprenoid methyl transferase (Homo sapiens, UniProt O60725); conditions: background statement; cited from earlier work
Chain of membrane-associated polyisoprenoid methyl transferase (O60725 whole entry): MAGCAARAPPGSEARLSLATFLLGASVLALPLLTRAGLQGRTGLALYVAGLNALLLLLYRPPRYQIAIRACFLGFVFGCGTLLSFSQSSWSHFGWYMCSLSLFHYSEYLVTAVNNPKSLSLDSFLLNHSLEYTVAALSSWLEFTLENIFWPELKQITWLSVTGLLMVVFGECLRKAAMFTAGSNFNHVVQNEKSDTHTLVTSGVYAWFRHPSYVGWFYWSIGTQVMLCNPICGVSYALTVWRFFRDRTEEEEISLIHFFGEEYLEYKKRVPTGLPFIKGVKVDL

chronic irritation = assay: Chronic irritation in mice by multiple TPA applications; assay type: in vivo, mouse; conditions: AFC in acetone, contemplated result
Protocol: The effectiveness of the inventive compositions against established chronic irritation can be assayed using a modification of the technique of Stanley P L et al., Mouse skin inflammation induced by multiple topical application 12-O-tetradeconoyphorbol-13-acetate. Skin Pharmacol. 1991, 4(4):262-71. Both ears of each mouse are treated with TPA in acetone, as above, in a series of 5 applications on the mornings of days 0, 2, 4, 7, and 9. […] Punches of the ears then are taken the afternoon of the tenth day and prepared, as above, for the edema assay and the infiltration of neutrophils. Total granulocyte infiltration then is assayed by measuring MPO activity. Macrophage infiltration is determined immunocytologically using the MOMA-2 antibody. Hydrocortisone, which is known to reduce inflammatory edema granulation infiltration and microphage infiltration, can be used as a positive control.

[6] = tested on: neutrophil, macrophage, and platelet responses; conditions: in vitro, background statement; cited from earlier work
TPA-induced MPO activity [7] = conditions: mouse, in vivo
Protocol: These included dexamethasone, a steroid, and indomethasone, a non-steroid anti-inflammatory drug, which targets cycloxygenases. The action of AFC in this model was, therefore, compared to that of dexamethasone and indomethasone. Each of these agents were tested using the same protocols used to test AFC.

mouse ear [8] = assay: Induction of mouse ear edema by TPA (dose response for irritant); assay type: in vivo; conditions: of the acetone-treated ear; TPA 0.25 to 1.75 μg/20 μl in acetone, topical, 5.5 hours
Protocol: A dose response range for TPA, a compound known to induce edema, was determined. TPA produces an increase in edema (ear swelling) that reaches a maximum at 6 hours.
Increasing concentrations of TPA dissolved in acetone were applied with the aid of a micropipetter onto the right ear of each of the five 6-8 week old, male Swiss Webster mice used in this analysis. Ten microliters (10 μl) were spread evenly onto the inner and outer surfaces using the pipette tip. The mice then were returned to their cages. The contralateral ear was treated only with acetone. After 5.5 hours, the mice were sacrificed and 6 mm punches were taken from each ear and weighed. Edema response was expressed as a percent increase in the treated ear's weight over the untreated ear. The dose response curve, as well as an ED50 value, was determined using the Lichtfield method (Lichtfield J T W. F., A simplified method of evaluating dose-effect experiments, Journal of Pharmacology and Experimental Therapeutics, 1948, 96: 99-113).

[9] = 2 μg TPA in 20 μl acetone, AFC 15 min later, 24 hours

**Q.** Which “edema and neutrophil infiltration in DNFB challenge” value [1] does the source give for `CC(=O)N[C@@H](CSCC=C(C)CCC=C(C)CCC=C(C)C)C(=O)O` (stereo in doubt) [AFC, N-acetyl-5-trans, trans-farnesyl-L-cysteine] here?
**A.** effective in reducing both edema and neutrophil infiltration

**Q.** What about the “effect on TPA-induced MPO activity at different application times” value (TPA-induced MPO activity [2]; 1 μg/20 μl TPA, 1 mg/20 μl AFC at various times before and after TPA) of the same compound?
**A.** efficacy of AFC treatment prior to, simultaneous with, or after exposure of skin to TPA

**Q.** And the “ED50 for inhibition of TPA-induced MPO activity” value (TPA-induced MPO activity [2]; [9])?
**A.** 0.065 mg/20 μl

**Q.** What about the “inhibition of TPA-induced increases in MPO activity” value (TPA-induced MPO activity [2]; [9]) of the same compound?
**A.** > 80%

**Q.** And the “skin irritation at patch site 1b” value (human skin; 20% SDS patch removed after 2 hours and 30 minutes)?
**A.** mild response

**Q.** What about the “skin irritation at patch site 1a” value (human skin; 20% SDS patch removed after 2 hours) of the same compound?
**A.** normal skin

**Q.** And the “reduction in dermal neutrophils (counts)” value ([3]; 1.0 mg/20 μl AFC, TPA acute contact irritation, statistically significant, paired t-test)?
**A.** 80%

**Q.** What about the “neutrophils in histology of AFC treated ear” value ([3]; TPA pretreated ears, 24 hours, FIG. 5) of the same compound?
**A.** substantial reduction of neutrophils

**Q.** And the TPA-induced erythema (TPA-induced erythema)?
**A.** An effect of the AFC inventive composition on TPA-induced erythema was observed

**Q.** What about the “ED50 for TPA-induced edema inhibition” value (TPA-induced edema) of the same compound?
**A.** approximately 0.44 mg/20 μl

**Q.** And the “maximum reduction in TPA-induced edema” value (TPA-induced edema)?
**A.** 80%

**Q.** What about the “edema response (ear punch biopsy weight) to AFC alone” value (mouse ear [4]) of the same compound?
**A.** no effect

**Q.** And the “inhibition of polyisoprenoid methyl transferase” value [5]?
**A.** inhibit membrane-associated polyisoprenoid methyl transferase

**Q.** What about the “chronic edema and neutrophil number” value (chronic irritation) of the same compound?
**A.** reduces chronic edema and neutrophil number

**Q.** And the “neutrophil, macrophage and platelet responses” value [6]?
**A.** block some neutrophil, macrophage, and platelet responses in vitro

**Q.** With `C[C@@H]1C[C@H]2[C@@H]3CCC4=CC(=O)C=C[C@]4(C)[C@@]3(F)[C@@H](O)C[C@]2(C)[C@@]1(O)C(=O)CO` [dexamethasone] as the compound, how does the “MPO activity in the contralateral vehicle-treated ear (systemic effect)” value (TPA-induced MPO activity [7]) read?
**A.** increasing inhibition of MPO activity

**Q.** For `COc1ccc2c(c1)c(CC(=O)O)c(C)n2C(=O)c1ccc(Cl)cc1` [indomethasone], which “MPO activity in the contralateral vehicle-treated ear (systemic effect)” value (TPA-induced MPO activity [7]) is on record?
**A.** increasing inhibition of MPO activity

**Q.** Which “maximum increase in ear weight (edema)” value (mouse ear [8]) does the source give for tetradecanoylphorbol acetate [TPA] here?
**A.** approximately 150%
